Measured values from US10238631B2, “Sesquiterpene derivatives and their use in inflammation or cancer treatment” (Academia Sinica, priority 2014, dated 2019).
Where two headings read alike, the source gives them in different places.

Assays:
[1] = tested on: Melanocyte (Normal cells); assay: MTT cell viability assay, normal melanocytes; format: cell-based, human; conditions: Homo sapiens, Melanocyte, 24 h
Experimental: (§1) Normal or cancer cells (2×10^3 to 1×10^4 cells/well) were seeded in 96-well plate for overnight and treated with different compounds for 24 h to 72 h. Cells growth were determined by MTT-based colorimetric assays according to. Viability of the test cells treated with vehicle (0.5% DMSO) only was defined as 100% viable. Survival of cells after treatment with DETDs was calculated using the following formula: viable cell number (%)=OD570 (treated cell culture)/OD570 (vehicle control)×100.
(§2) Several genes are involved in melanoma development and pathology; specifically, mutation in V-raf murine sarcoma viral oncogene homolog B1 (B-RAF) occurs approximately 50-60% and in neuroblastoma RAS viral oncogene homolog (N-RAS) occurs about 30% of malignant melanomas. A spectrum of wild-type or mutated melanoma cell lines including B16-F10, MeWo, A375, A2058, HTB-68, and melanocyte were used to study anti-melanoma cell proliferation activity of parental phytocompound DET and newly synthesized DETDs.

[2] = tested on: LPS-induced nitric oxide (NO) production in RAW 264.7 cells; assay: Nitric oxide production in LPS-stimulated macrophages (Griess); format: cell-based, mouse; conditions: Mus musculus; LPS-stimulated RAW264.7, nitrite 24 h after LPS
Experimental: (§3) Marcophages (2×10^5 cells/well in 96-well plate) were treated with compounds for 1 h, then incubated further for 24 h with or without the presence of […] LPS in the cultural medium. Nitrite levels in cell culture medium were determined by the Griess reaction method. In parallel to the Griess assays, macrophage cell viabilities were determined using the MTT based colorimetric assay.
LPS from the outer membrane of Gram-negative bacteria can induce mRNA or protein levels of inducible nitric oxide synthase (iNOS), which catalyzes oxidative deamination of L-arginine to produce nitric oxide (NO). Once NO is predominantly produced, it interacts with superoxide anion and generates highly reactive oxidants resulting in cellular inflammation, DNA, protein and tissue damages, carcinogenesis, and antiapoptosis. We used in vitro LPS stimulated inflammation in RAW264.7 cell system to evaluate the effect of DET and its derivatives DETDs on NO production by determination of nitrite level (equivalent to NO level) in culture medium 24 h after LPS treatment.

HTB-68 (NRAS mutation) = assay: MTT cell viability assay, HTB-68 melanoma; format: cell-based, human; conditions: Homo sapiens, 24 h
Experimental: as §1, §2

A2058 (BRAF mutation) = assay: MTT cell viability assay, A2058 melanoma; format: cell-based, human; conditions: Homo sapiens, A2058, 24 h
Experimental: as §1, §2

B16-F10 (NRAS mutation) = assay: MTT cell viability assay, B16-F10 melanoma; format: cell-based; conditions: Mus musculus, B16-F10, 24 h, read-out: IC50 on cell viability, B16-F10 (NRAS mutation)
Experimental: as §1, §2

[3] = tested on: MeWo (No NRAS or BRAF mutation); assay: MTT cell viability assay, MeWo melanoma; format: cell-based, human; conditions: Homo sapiens, MeWo, 24 h
Experimental: as §1, §2

[4] = tested on: TS/A (ER+, Her2−) murine mammary cancer cells; assay: MTT cell viability assay, TS/A cells; format: cell-based; conditions: Mus musculus, 24 h, read-out: IC50 on cell viability, TS/A (ER+, Her2−)
Experimental: as §1
(§4) Sixty DETDs were derived from parental compound […] and tested for anti-breast cancer cell activity.

[5] = tested on: MCF-7 (ER+, Her2−) human breast cancer cells; assay: MTT cell viability assay, MCF-7 cells; format: cell-based; conditions: MCF7, 24 h, read-out: IC50 on cell viability, MCF-7 (ER+, Her2−)
Experimental: as §1, §4

[6] = tested on: M10 normal mammary epithelial cells; assay: MTT cell viability assay, M10 normal cells; format: cell-based, human; conditions: Homo sapiens, Epithelial cell, 24 h
Experimental: as §1, §4

[7] = tested on: RAW264.7 (normal macrophage); assay: MTT cell viability assay, RAW264.7 macrophages; format: cell-based, mouse; conditions: Mus musculus, RAW264.7, 24 h
Experimental: as §1, §3

A375 (BRAF mutation) = assay: MTT cell viability assay, A375 melanoma; format: cell-based, human; conditions: Homo sapiens, A-375, 24 h, read-out: IC50 on cell viability, A375 (BRAF mutation)
Experimental: as §1, §2
To investigate whether or not DETD-35 show synergism with PLX4032 against A375 melanoma cells, we performed anti-proliferation assay using MTT reagent to obtain IC50 of each compound. […] The synergistic effect was quantified by combination index (CI) analysis as stated above.

[8] = tested on: MDA-MB-231 (ER−, PR−, Her2−) human breast cancer cells; assay: MTT cell viability assay, MDA-MB-231 cells; format: cell-based; conditions: Homo sapiens, MDA-MB-231, 24 h, read-out: IC50 on cell viability, MDA-MB-231 (ER−, PR−, Her2−)
Experimental: as §1, §4

With C=C1C(=O)OC2CC3=C[C@@H](C/C(C)=C/C(OC(=O)CCc4cccc5ccccc45)[C@H]12)OC3=O (stereo partly drawn) [DETD-51] the IC50 [1] was over 10 µM, the IC50 [2] was over 10 µM and the IC50 (HTB-68 (NRAS mutation)) was over 10 µM. The IC50 (A2058 (BRAF mutation)) was over 10 µM, the IC50 (B16-F10 (NRAS mutation); 24 h) was over 10 µM and the IC50 [3] was over 10 µM. The IC50 [4] was over 7.5 µM, the IC50 [5] was over 7.5 µM and the IC50 [6] was over 7.5 µM. The IC50 [7] was over 10 µM, the IC50 (A375 (BRAF mutation); 24 h, MTT) was over 10 µM and the IC50 [8] was over 15 µM.

For C=C1C(=O)OC2CC3=C[C@@H](C/C(C)=C/C(OC(=O)/C=C/c4cccc(OCC)c4)[C@H]12)OC3=O (stereo partly drawn) [DETD-50], the IC50 [1] was over 10 µM, the IC50 [2] was over 10 µM and the IC50 (HTB-68 (NRAS mutation)) was over 10 µM. It also gave an IC50 (A2058 (BRAF mutation)) of 8.7 µM, an IC50 (B16-F10 (NRAS mutation); 24 h) of 9.4 µM and an IC50 [3] of 9.3 µM. It also gave an IC50 [4] of 4.4 µM, an IC50 [5] of over 7.5 µM and an IC50 [6] of over 7.5 µM. It also gave an IC50 [7] of over 10 µM, an IC50 (A375 (BRAF mutation); 24 h, MTT) of 4.6 µM and an IC50 [8] of 7.7 µM.

Molecule C=C1C(=O)OC2CC3=C[C@@H](C/C(C)=C/C(OC(=O)C4CC4)[C@H]12)OC3=O (stereo partly drawn) [DETD-36] has an IC50 [1] of over 10 µM, an IC50 [2] of 1.8 µM and an IC50 (HTB-68 (NRAS mutation)) of over 10 µM. The IC50 (A2058 (BRAF mutation)) was over 10 µM, the IC50 (B16-F10 (NRAS mutation); 24 h) was 9.4 µM and the IC50 [3] was over 10 µM. The IC50 [4] was 2.4 µM, the IC50 [5] was 7.1 µM and the IC50 [6] was over 7.5 µM. It also gave an IC50 [7] of over 10 µM, an IC50 (A375 (BRAF mutation); 24 h, MTT) of 9.2 µM and an IC50 [8] of 8.7 µM.

C=C1C(=O)OC2CC3=C[C@@H](C/C(C)=C/[C@@H](OC(=O)Cc4coc5ccccc45)[C@H]12)OC3=O (stereo partly drawn) [DETD-59] was tested, and the IC50 [1] was over 10 µM, the IC50 [2] was over 10 µM and the IC50 (HTB-68 (NRAS mutation)) was 4.8 µM. For the same molecule, the IC50 (A2058 (BRAF mutation)) was 6 µM, the IC50 (B16-F10 (NRAS mutation); 24 h) was 6.3 µM and the IC50 [3] was over 10 µM. It also gave an IC50 [4] of 3.5 µM, an IC50 [5] of over 7.5 µM and an IC50 [6] of over 7.5 µM. The IC50 [7] was over 10 µM, the IC50 (A375 (BRAF mutation); 24 h, MTT) was 2.6 µM and the IC50 [8] was 5.1 µM.

C=C1C(=O)OC2CC3=C[C@@H](C/C(C)=C/C(OC(=O)CC(C)C)[C@H]12)OC3=O (stereo partly drawn) [DETD-10] gave an IC50 [1] of over 10 µM, an IC50 [2] of 1.8 µM and an IC50 (HTB-68 (NRAS mutation)) of over 10 µM. For the same molecule, the IC50 (A2058 (BRAF mutation)) was over 10 µM, the IC50 (B16-F10 (NRAS mutation); 24 h) was 6 µM and the IC50 [3] was over 10 µM. The IC50 [4] was 2.7 µM, the IC50 [5] was 3.4 µM and the IC50 [6] was over 7.5 µM. It also gave an IC50 [7] of over 10 µM, an IC50 (A375 (BRAF mutation); 24 h, MTT) of over 10 µM and an IC50 [8] of 5.9 µM.

C=C1C(=O)OC2CC3=C[C@@H](C/C(C)=C/C(OC(=O)/C=C/c4ccc(C)cc4)[C@H]12)OC3=O (stereo partly drawn) [DETD-27] was tested, and the IC50 [1] was over 10 µM, the IC50 [2] was 1.9 µM and the IC50 (HTB-68 (NRAS mutation)) was over 10 µM. The IC50 (A2058 (BRAF mutation)) was over 10 µM, the IC50 (B16-F10 (NRAS mutation); 24 h) was 4.8 µM and the IC50 [3] was over 10 µM. For the same molecule, the IC50 [4] was 2.4 µM, the IC50 [5] was 3.7 µM and the IC50 [6] was over 7.5 µM. It also gave an IC50 [7] of over 10 µM, an IC50 (A375 (BRAF mutation); 24 h, MTT) of over 10 µM and an IC50 [8] of 3.6 µM.

C=C1C(=O)OC2CC3=C[C@@H](C/C(C)=C/C(OC(=O)CC(O)(C(C)C)C(C)C)[C@H]12)OC3=O (stereo partly drawn) [DETD-23] gave an IC50 [1] of over 10 µM, an IC50 [2] of 3.8 µM and an IC50 (HTB-68 (NRAS mutation)) of over 10 µM. The IC50 (A2058 (BRAF mutation)) was over 10 µM, the IC50 (B16-F10 (NRAS mutation)) was 8.6 µM and the IC50 [3] was over 10 µM. It also gave an IC50 [4] of 2.4 µM, an IC50 [5] of 2.5 µM and an IC50 [6] of over 7.5 µM. For the same molecule, the IC50 [7] was over 10 µM, the IC50 (A375 (BRAF mutation)) was over 10 µM and the IC50 [8] was 5.9 µM.

C=C1C(=O)OC2CC3=C[C@@H](C/C(C)=C/C(OC(=O)C(C)CC)[C@H]12)OC3=O (stereo partly drawn) [DETD-13] showed an IC50 [1] of over 10 µM, an IC50 [2] of 2 µM and an IC50 (HTB-68 (NRAS mutation)) of over 10 µM. The IC50 (A2058 (BRAF mutation)) was over 10 µM, the IC50 (B16-F10 (NRAS mutation); 24 h) was 7.1 µM and the IC50 [3] was over 10 µM. It also gave an IC50 [4] of 1.9 µM, an IC50 [5] of 3.7 µM and an IC50 [6] of over 7.5 µM. The IC50 [7] was over 10 µM, the IC50 (A375 (BRAF mutation); 24 h, MTT) was over 10 µM and the IC50 [8] was 7.5 µM.
